From publication PMC8978639, “Fine-tuning of the pharmacological potential of novel thiazolium ionic liquids by anion alteration” (RSC Advances, 2021)
Values after ≈ are worked out from the molar mass of the structure shown. Where two headings read alike, the source gives them in different places.

Experiments:
S.aureus = tested on: S.aureus; design: method as in doi:10.1039/b921805j, doi:10.1016/j.molliq.2016.05.093; settings: cited from earlier work
E.coli = tested on: E.coli; design: method as in doi:10.1039/b921805j, doi:10.1016/j.molliq.2016.05.093; settings: cited from earlier work
E. coli (ATCC-25922) = assay: Minimal inhibitory/bactericidal concentrations (MIC/MBC); type: cell-based, Escherichia coli
Description: (§1) The antimicrobial activity of newly synthesized benzyl thiazolium ionic liquids (BTILs) was investigated in vitro against the most common foodborne bacterial strains (Staphylococcus aureus (S. aureus, ATCC-25923) and Escherichia coli (E. coli, ATCC-25922)) in comparison with clinical drugs (Gentamycin (Gm) and Tetracyclin (TC)). These tests have been conducted in accordance with the standard antimicrobial assessment protocols we've described and used in our previous studies.[29] The diameters of the zone of inhibition (ZOI, mm), values of minimum inhibitory concentration (MIC), and minimal bactericidal concentration (MBC) were used as markers for the antimicrobial efficacy of the tested compounds.
(§2) As evident in Table 2, the results of MIC and MBC are in general accordance with the Well diffusion assay. […] In the literature, quantitative information on the antimicrobial activity of short-chained and benzyl-functionalized ionic liquids is scarce. In this context, few studies have reported the antibacterial impact of 1-alkyl-3-methylimidazolium ionic liquids, bound to different anions, upon various pathogenic bacteria.

S. aureus (ATCC-25923) = assay: as above; type: cell-based, Staphylococcus aureus; settings: for MBC ± SD / MIC ± SD: S. aureus
Description: as §1, §2

[1] = tested on: Staphylococcus aureus (S. aureus, ATCC-25923); assay: Well diffusion assay (zone of inhibition); type: cell-based
Description: as §1, with “These tests have been conducted in accordance with the standard antimicrobial assessment protocols we've described and used in our previous studies.[29]” left out
The antibacterial activities of novel TILs against S. aureus and E. coli were screened in vitro, as compared to clinical antibiotics (Gentamycin (Gm) and Tetracyclin (TC)). […] Gram-negative bacteria' outer membranes, which are composed of impermeable lipopolysaccharides (LPS), phospholipids, and lipoproteins, may act as a barrier to the entry of antimicrobial molecules, whereas Gram-positive bacteria's outer membranes have no LPS layer and are composed only of a thick peptidoglycan layer which can easily absorb and transfer such antimicrobials to the inner cell membrane.[43]

[2] = Thermal stability by TG/DTG; type: physicochemical; settings: taken from DTG curves
Protocol: The thermogravimetric (TG) curves of the room temperature thiazolium ionic liquids (RTTILs) (3a, 4a–c) (Fig. 1A) were employed for the investigation of their thermal stabilities. It is evident that they are thermally stable up to 270 °C and then undergo a sharp degradation phase in the temperature range of 270–350 °C. […] The first main decomposition phase (∼81% weight loss) starts at 323 °C, followed by a modest decomposition stage between 496 and 618 °C. […] The first thermal degradation step begins at 298 °C (∼52% weight loss) and is followed by two smaller degradation steps at 353 and 418 °C, respectively.

[3] = Viscosity by capillary viscometer; type: physicochemical; settings: at 50 °C and concentrations 0.5 mg mL^−1, capillary viscometer
Description: Also, the viscosity of new benzyl thiazolium ionic liquids depends on the intrinsic structural features of the cation and anion. […] This behavior can be explained based on the fact that the extremely hydrophobic Tf2N^− anion, enriched with fluorine electrons, exerts higher ion–ion interactions with hydrophobic tert-butylbenzyl-methylthiazolium cation, resulting in an increase in viscosity.[35]

[4] = tested on: ovarian carcinoma cell lines (SKOV-3); assay: MTT cytotoxicity assay; type: cell-based, human; settings: for IC50: SKOV-3, MTT, 24 h of treatment; for Selectivity index (SI): cancer cells (SKOV-3) over normal ones (HSF)
Protocol: (§3) The antiproliferative activity of novel BTILs was tested in vitro against two cell lines: ovarian cancer (SKOV-3) and normal human skin fibroblast cells (HSF) using the standard MTT cytotoxicity assay described in our previous work.[30] The cell viability ratios, half-maximal inhibitory concentration (IC50), and selectivity index (SI) were used as performance indices for the cytotoxicity of tested compounds. The clinical anticancer drug (cisplatin, CDDP) was used as a positive control.
The use of ionic liquids (ILs) in pharmaceutical and medicinal chemistry has recently piqued the interest of researchers across the globe.[12] In this scenario, several studies have documented the anticancer potential of ILs.[20,48] In order to find potential safe anticancer candidates, the cytotoxicity of imidazolium, ammonium, pyridinium, and phosphonium ILs was tested against over 60 human cancer cell lines.[12,49] […] Besides, the cytotoxicity of ILs is strongly correlated to the counter anion. For instance, the cytotoxicity of 1-alkyl-3-methylimidazolium cation [RMIM]^+ follows the following trend; [RMIM][Tf2N] ≫ [RMIM][BF4] > [RMIM][Cl].[50] To our knowledge, no previous studies have been reported so far for using thiazolium ILs for anticancer purposes. These facts have inspired us to design and study the antiproliferative activity of new thiazolium ILs tethering different anions (BF4 (3a–c) and Tf2N (4a–c)) against ovarian carcinoma cell lines (SKOV-3) and normal human skin fibroblast cells (HSF). The 3-(4,5-dimethylthiazol-2-yl)-2,5-diphenyltetrazolium bromide (MTT) assay was used to carry out this study, with cisplatin (CDDP) serving as a positive control. Initially, the impacts of serial concentrations (2.5–100 μM) of the thiazolium ILs on the viability of the SKOV-3 cell lines were assessed as compared to CDDP. […] In general, TILs bound to Tf2N anion (4a–c) inhibited the proliferation of SKOV-3 cells more effectively than the corresponding tetrafluoroborate analogues (3a–c). For instance, [^iPBzTh][Tf2N] (4b) is the most cytotoxic one and can reduce the SKOV-3 cellular viability to a minimum value (10.5 ± 1.7%, Fig. 5A) at its treatment dosage of 100 μM. Conversely, [MBzTh][BF4]
At definite time intervals, the SKOV-3 cell viability has been measured.

[5] = tested on: normal human skin fibroblast cells (HSF); assay: MTT cytotoxicity assay; type: cell-based; settings: HSF, MTT, 24 h of treatment
Protocol: as §3
(§4) To explore the selectivity of the newly synthesized TILs for attacking cancer cells over normal ones, the effects of serial concentrations (0–200 μM) of these TILs on the proliferation of normal human skin fibroblast (HSF) cells were also studied for a period of 24 h. […] For example, treatment of both cell lines with 100 μM of [^iPBzTh][Tf2N] […] [MBzTh][BF4]

MTT cytotoxicity assay = type: cell-based, human; settings: human, normal human skin fibroblast (HSF) cells; 200 μM, 24 h
Protocol: as §3, §4

Molecule	MBC ± SD (E. coli (ATCC-25922)) [mM]	MIC ± SD (E. coli (ATCC-25922)) [mM]	MBC ± SD (S. aureus (ATCC-25923)) [mM]	MIC ± SD (S. aureus (ATCC-25923)) [mM]	Zone of inhibition (ZOI) [1] [mm]	IC50 [4] [µM]	Selectivity index (SI) [4]	IC50 [5] [µM]	also measured
CCCCCCn1cc[n+](C)c1.O=S(=O)([N-]S(=O)(=O)C(F)(F)F)C(F)(F)F [1-hexyl-3-methylimidazolium bis((trifluoromethyl)sulfonyl)amide]	–	–	–	–	–	–	–	–	MBC (S.aureus): 9.13 mM; MIC (S.aureus): 9.13 mM; MBC (E.coli): 24.59 mM; MIC (E.coli): 24.59 mM
Cc1ccc(C[n+]2cscc2C)cc1.[Cl-] [2a, 3-(4-Methylbenzyl)-4-methylthiazol-3-ium chloride]	12.25 ± 0.36	6.75 ± 0.35	4.25 ± 0.31	4.05 ± 0.29	–	–	–	–	MBC ± SD (E. coli (ATCC-25922); listed as [MBzTh][Cl]): 12.25 mM; MIC ± SD (E. coli (ATCC-25922); listed as [MBzTh][Cl]): 6.75 mM; MBC ± SD (S. aureus (ATCC-25923); listed as [MBzTh][Cl]): 4.25 mM; MIC ± SD (S. aureus (ATCC-25923); listed as [MBzTh][Cl]): 4.05 mM
Cc1csc[n+]1Cc1ccc(C(C)C)cc1.[Cl-] [2b, 3-(4-Isopropylbenzyl)-4-methylthiazol-3-ium chloride]	5.25 ± 0.29	5.25 ± 0.31	2.35 ± 0.28	2.35 ± 0.27	32.13	–	–	–	–
Cc1csc[n+]1Cc1ccc(C(C)(C)C)cc1.[Cl-] [2c, 3-(4-(tert-Butyl)benzyl)-4-methylthiazol-3-ium chloride]	6.25 ± 0.29	6.25 ± 0.27	3.75 ± 0.14	3.75 ± 0.19	–	–	–	–	–
Cc1ccc(C[n+]2cscc2C)cc1.F[B-](F)(F)F [3a, 3-(4-Methylbenzyl)-4-methylthiazol-3-ium tetrafluoroborate]	5.75 ± 0.45	5.75 ± 0.41	3.25 ± 0.21	3.25 ± 0.19	39.21	78 ± 1.35	2.28	–	T dec (decomposition temperature) [2]: 340.3 °C; η (viscosity) [3]: 439.25 ± 5.3 cP; Reduction in SKOV-3 viability ([4]; 100 μM, 24 h): 54.6%; IC50 ([5]; Homo sapiens, Skin fibroblast, 24 h): 178 ± 8.79 µM; viability at 24 h, 200 µM (MTT cytotoxicity assay): 45.5 ± 4.1%
Cc1csc[n+]1Cc1ccc(C(C)C)cc1.F[B-](F)(F)F [3b, 3-(4-Isopropylbenzyl)-4-methylthiazol-3-ium tetrafluoroborate]	6.25 ± 0.23	5.25 ± 0.29	2.56 ± 0.15	2.56 ± 0.13	41.86	35.7 ± 1.03	4.26	152 ± 9.15	–
Cc1csc[n+]1Cc1ccc(C(C)(C)C)cc1.F[B-](F)(F)F [3c, 3-(4-(tert-Butyl)benzyl)-4-methylthiazol-3-ium tetrafluoroborate]	6.50 ± 0.39	6.50 ± 0.39	3.12 ± 0.14	3.12 ± 0.19	39.02	51.1 ± 2.33	3.76	191 ± 9.85	–
[NH2][Pt]([NH2])([Cl])[Cl] [CDDP, cisplatin, reference compound]	–	–	–	–	–	79.5 ± 1.18	0.73	58.3 ± 6.67	SKOV-3 cell viability ([4]; IC50 dose, after 72 h): 10.2 ± 2.7%
CN(C)[C@@H]1C(O)=C(C(N)=O)C(=O)[C@@]2(O)C(O)=C3C(=O)c4c(O)cccc4[C@@](C)(O)[C@H]3C[C@@H]12 [Tetracycline, reference compound]	–	–	–	–	–	–	–	–	MIC (S. aureus (ATCC-25923); Staphylococcus aureus, ATCC25923, S. aureus): 7.2 ± 0.66 mM (≈ 3200 µg/mL)
Gentamycin [reference compound]	–	6.85 ± 0.63	–	–	–	–	–	–	–
